Reference: US20260062426A1, “CYCLIN DEPENDENT KINASE DEGRADERS AND METHODS OF USE THEREOF” (Differentiated Therapeutics Inc, priority 2023, published 2026)

Assays:
Type in all cases: cell-based
[1] = target: T1, CDK2 (Homo sapiens, UniProt P24941); assay: CDK2 HIBIT PQ (protein quantification), degradation; conditions: for CDK2 HIBIT PQ Max (%): Max = Maximum; for DC50: PQ = Protein Quantification
T1 construct: host or cells: HEK293
Outline: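 HEK293 cells carrying HiBiT-tagged CDK2 were grown in DMEM with 10% FBS and seeded in 384-well plates at 1.6×10^5 cells/well in 50 uL, then incubated overnight at 37° C and 5% CO2. After 6 hours of compound treatment, 20 μL of HiBiT reagent (Nano-Glo HiBiT lytic buffer, lytic substrate, LgBiT protein) was added and plates were shaken for 20 minutes at room temperature before an EnVision reading. High control was 0.1% DMSO and low control was medium only. Maximal degradation and DC50 were derived from these readings.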

[2] = target: T2, CDK9 (Homo sapiens, UniProt P50750); assay: CDK9 HIBIT PQ (protein quantification), degradation; conditions: for Dmax: Max = Maximum; for DC50: PQ = Protein Quantification
T2 construct: host or cells: HEK293
T2 sequence (P50750 whole entry): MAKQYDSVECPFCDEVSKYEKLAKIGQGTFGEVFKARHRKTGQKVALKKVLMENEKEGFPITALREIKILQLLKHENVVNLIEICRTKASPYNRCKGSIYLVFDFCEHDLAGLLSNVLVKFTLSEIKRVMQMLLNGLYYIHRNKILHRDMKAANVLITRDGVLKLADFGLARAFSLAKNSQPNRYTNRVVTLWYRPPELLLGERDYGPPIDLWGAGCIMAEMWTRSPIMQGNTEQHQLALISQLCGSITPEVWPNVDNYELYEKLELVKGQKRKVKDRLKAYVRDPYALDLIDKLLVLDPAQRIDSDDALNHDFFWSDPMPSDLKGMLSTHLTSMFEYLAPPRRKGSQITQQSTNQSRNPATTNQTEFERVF
Outline: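 In 384-well plates, HEK293 cells with HiBiT-tagged CDK9, grown in DMEM with 10% FBS, were seeded at 1.6×10^5 cells/well in 50 uL and kept overnight at 37° C and 5% CO2. After compound treatment, a HiBiT assay quantified CDK9 protein against a high control of 0.1% DMSO-treated cells and a low control of culture medium only. Maximal degradation, Dmax and DC50 were derived from the resulting signal.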

[3] = target: T3, CCNE1 (Homo sapiens, UniProt P24864+P24941); assay: CCNE1 HIBIT PQ (protein quantification), degradation; conditions: for CCNE1 HIBIT PQ Max (%): Max = Maximum; for DC50: PQ = Protein Quantification
T3 construct: host or cells: HEK293
Outline: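 HEK293 cells with HiBiT-tagged CCNE1 were cultured in EMEM containing 10% FBS, plated at 1.6×10⁵ cells/well in 50 uL in 384-well plates and left overnight at 37° C with 5% CO₂. After 6 hours of compound exposure, a HiBiT assay measured CCNE1 protein, with 0.1% DMSO-treated cells as the high control and medium alone as the low control. DC50 and maximal degradation came from these readings.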

Row | Structure (SMILES) | CDK2 HIBIT PQ Max (%) [1] [%] | DC50 [1] [nM] | Dmax [2] [%] | CCNE1 HIBIT PQ Max (%) [3] [%] | DC50 [2] [nM] | DC50 [3] [nM]
1 | CC(C)Oc1c(-c2cn[nH]c2)ncn2nc(Nc3ccc(S(=O)(=O)c4cccc(C(C)N5CCN(c6ccc7c(N8CCC(=O)NC8=O)nn(C)c7c6)C6CC65)c4)cc3F)nc12 (stereo not drawn) [Compound 83] | 89 | 7.6 | 23 | 28 | – | –
2 | CC(C)Oc1c(-c2cn[nH]c2)ncn2nc(Nc3ccc(S(=O)(=O)N4CCCC(CN5CCC(c6ccc7c(N8CCC(=O)NC8=O)nn(C)c7c6)CC5)C4)cc3F)nc12 (racemic) [Compound 87, rac-(R)-1-(6-(1-((1-((3-fluoro-4-((8-isopropoxy-7-(1H-pyrazol-4-yl)-[1,2, 4]triazolo[1,5-c]pyrimidin-2-yl)amino)phenyl)sulfonyl)piperidin-3-yl)methyl)piperidin-4-yl)-1-methyl-1H-indazol-3-yl)dihydropyrimidine-2,4(1H,3H)-dione] | 90 | 0.4 | 72 | 79 | 3.32 | 1.4
3 | Cc1c(S(=O)(=O)N(C)CCCN2CCC(c3ccc4c(c3)n(C)c(=O)n4C3CCC(=O)NC3=O)CC2)ccc(Nc2nc3c(OC(C)C)c(-c4cn[nH]c4)ncn3n2)c1F (racemic) [Compound 55, rac-(R)-N-(3-(4-(1-(2,6-dioxopiperidin-3-yl)-3-methyl-2-oxo-2,3-dihydro-1H-benzo[d]imidazol-5-yl)piperidin-1-yl)propyl)-3-fluoro-4-((8-isopropoxy-7-(1H-pyrazol-4-yl)-[1,2,4]triazolo[1,5-c]pyrimidin-2-yl)amino)-N,2-dimethylbenzenesulfonamide] | 91 | 0.1 | 83 | 76 | 1.13 | 0.51
4 | CC(C)Oc1c(-c2cn[nH]c2)ncn2nc(Nc3ccc(S(=O)(=O)c4cccc(C(C)N5CCN(c6ccc7c(N8CCC(=O)NC8=O)nn(C)c7c6)CC5)c4)cc3F)nc12 (single isomer, unassigned) [Compound 98] | 95 | 2.3 | 78 | 67 | 34.8 | 12.7
5 | CC(C)Oc1c(-c2cn[nH]c2)ncn2nc(Nc3ccc(S(=O)(=O)c4cccc(C(C)N5CCC(c6ccc7c(N8CCC(=O)NC8=O)nn(C)c7c6)CC5)c4)cc3F)nc12 (single isomer, unassigned) [Compound 100] | 90 | 2.9 | 86 | 80 | 12.4 | 14.3
6 | CC(C)Oc1c(-c2cn[nH]c2)ncn2nc(Nc3ccc(S(=O)(=O)c4cccc(CN5CCN(c6ccc7c(N8CCC(=O)NC8=O)nn(C)c7c6)CC5C(C)C)c4)cc3F)nc12 (racemic) [Compound 42, rac-(R)-1-(6-(4-(3-((3-fluoro-4-((8-isopropoxy-7-(1H-pyrazol-4-yl)-[1,2,4]triazolo[1,5-c]pyrimidin-2-yl)amino)phenyl)sulfonyl)benzyl)-3-isopropylpiperazin-1-yl)-1-methyl-1H-indazol-3-yl)dihydropyrimidine-2,4(1H,3H)-dione] | 95 | 14.9 | 61 | 67 | 306 | 78.9
7 | CC(C)Oc1c(-c2cn[nH]c2)ncn2nc(Nc3ccc(S(=O)(=O)N(C)CCCN4CCC(c5cccc6c5n(C)c(=O)n6C5CCC(=O)N(C)C5=O)CC4)cc3F)nc12 (racemic) [Compound 28] | 6 | – | 2 | 0 | – | –
8 | CC(C)Oc1c(-c2cn[nH]c2)ncn2nc(Nc3ccc(S(=O)(=O)c4cccc(CN5CCC(c6cccc7c6n(C)c(=O)n7C6CCC(=O)NC6=O)CC5)c4)cc3F)nc12 (racemic) [Compound 13] | 85 | 0.42 | 53 | 44 | 6.6 | –
9 | CC(C)Oc1c(-c2cn[nH]c2)ncn2nc(Nc3ccc(S(=O)(=O)c4cccc(CN5CC(c6ccc7c(N8CCC(=O)NC8=O)nn(C)c7c6)C5)c4)cc3F)nc12 [Compound 78] | 85 | 2 | 12 | 36 | – | –
10 | CC(C)Oc1c(-c2cn[nH]c2)ncn2nc(Nc3ccc(S(=O)(=O)N4CCC(CN5CCC(c6cccc7c6n(C)c(=O)n7C6CCC(=O)NC6=O)CC5)CC4)cc3F)nc12 (racemic) [Compound 14, rac-(R)-3-(4-(1-((1-((3-fluoro-4-((8-isopropoxy-7-(1H-pyrazol-4-yl)-[1,2,4]triazolo[1,5-c]pyrimidin-2-yl)amino)phenyl)sulfonyl)piperidin-4-yl)methyl)piperidin-4-yl)-3-methyl-2-oxo-2,3-dihydro-1H-benzo[d]imidazol-1-yl)piperidine-2,6-dione] | 70 | 0.24 | 74 | 33 | 1.12 | –
